Laboratory results: PubChem BioAssay (NCI)
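Cultured in 96-well plates, cells were exposed to test compound for 48 hours across five concentrations. TGI: total growth inhibition.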

How the values were obtained:
Experiment in all cases: NCI anticancer screen, dose series, 48 h
MDA-MB-435 = tested on: MDA-MB-435
A498 renal = tested on: A498 renal
MOLT-4 leukemia = tested on: MOLT-4 leukemia
SF-268 CNS = tested on: SF-268 CNS
MCF7 breast = tested on: MCF7 breast
TK-10 renal = tested on: TK-10 renal
NCI-H226 lung = tested on: NCI-H226 lung
SK-OV-3 ovarian = tested on: SK-OV-3 ovarian
HCC-2998 colon = tested on: HCC-2998 colon
UACC-62 melanoma = tested on: UACC-62 melanoma
HS 578T breast = tested on: HS 578T breast
786-0 renal = tested on: 786-0 renal
SR leukemia = tested on: SR leukemia
SNB-75 CNS = tested on: SNB-75 CNS
MDA-N = tested on: MDA-N
RXF 393 renal = tested on: RXF 393 renal
CAKI-1 renal = tested on: CAKI-1 renal
MALME-3M melanoma = tested on: MALME-3M melanoma
T-47D breast = tested on: T-47D breast
ACHN renal = tested on: ACHN renal
OVCAR-8 ovarian = tested on: OVCAR-8 ovarian
BT-549 breast = tested on: BT-549 breast
DU-145 prostate = tested on: DU-145 prostate
HOP-92 NSCLC = tested on: HOP-92 NSCLC
NCI-H522 lung = tested on: NCI-H522 lung
COLO 205 colon = tested on: COLO 205 colon
NCI-H460 lung = tested on: NCI-H460 lung
M14 melanoma = tested on: M14 melanoma
UO-31 renal = tested on: UO-31 renal
UACC-257 melanoma = tested on: UACC-257 melanoma
PC-3 prostate = tested on: PC-3 prostate
LOX IMVI melanoma = tested on: LOX IMVI melanoma
KM12 colon = tested on: KM12 colon
OVCAR-5 ovarian = tested on: OVCAR-5 ovarian
U251 CNS = tested on: U251 CNS
K-562 leukemia = tested on: K-562 leukemia
SK-MEL-28 melanoma = tested on: SK-MEL-28 melanoma
NCI-H23 lung = tested on: NCI-H23 lung
EKVX NSCLC = tested on: EKVX NSCLC
SNB-19 CNS = tested on: SNB-19 CNS
SN12C renal = tested on: SN12C renal
CCRF-CEM leukemia = tested on: CCRF-CEM leukemia
RPMI-8226 leukemia = tested on: RPMI-8226 leukemia
OVCAR-4 ovarian = tested on: OVCAR-4 ovarian
SF-295 CNS = tested on: SF-295 CNS
HCT-15 colon = tested on: HCT-15 colon
SW-620 colon = tested on: SW-620 colon
A549 NSCLC = tested on: A549 NSCLC
HCT-116 colon = tested on: HCT-116 colon
SK-MEL-5 melanoma = tested on: SK-MEL-5 melanoma
NCI/ADR-RES ovarian = tested on: NCI/ADR-RES ovarian
SK-MEL-2 melanoma = tested on: SK-MEL-2 melanoma
MDA-MB-231 breast = tested on: MDA-MB-231 breast
HOP-62 NSCLC = tested on: HOP-62 NSCLC
OVCAR-3 ovarian = tested on: OVCAR-3 ovarian
SF-539 CNS = tested on: SF-539 CNS
HT29 colon = tested on: HT29 colon
IGROV1 ovarian = tested on: IGROV1 ovarian

CC1OC(OC2C(O)COC(OC3C(C)OC(OC4C(OC(=O)[C@]56CCC(C)(C)C[C@@H]5C5=CCC7[C@@]8(C)C[C@H](O)[C@H](OC9OC(CO)C(O)C(O)C9O)[C@@](C)(CO)[C@@H]8CC[C@@]7(C)[C@]5(C)CC6)OCC(O)C4O)C(O)C3OC3OCC(O)C(O)C3O)C2O)C(O)C(O)C1O (some centres undefined)
TGI (MDA-MB-435): 44.8 µM
TGI (A498 renal): 32.7 µM
TGI (MOLT-4 leukemia): 46 µM
TGI (SF-268 CNS): 47.5 µM
TGI (MCF7 breast): 43.8 µM
TGI (TK-10 renal): 33 µM
TGI (NCI-H226 lung): 46.1 µM
TGI (SK-OV-3 ovarian): 34.7 µM
TGI (HCC-2998 colon): 33.9 µM
TGI (UACC-62 melanoma): 41.1 µM
TGI (HS 578T breast): 63.9 µM
TGI (786-0 renal): 29.2 µM
TGI (SR leukemia): 46.1 µM
TGI (SNB-75 CNS): 41.1 µM
TGI (MDA-N): 35.2 µM
TGI (RXF 393 renal): 34.1 µM
TGI (CAKI-1 renal): 26.8 µM
TGI (MALME-3M melanoma): 54.7 µM
TGI (T-47D breast): 44.8 µM
TGI (ACHN renal): 36.1 µM
TGI (OVCAR-8 ovarian): 37.3 µM
TGI (BT-549 breast): 52.6 µM
TGI (DU-145 prostate): 36.2 µM
TGI (HOP-92 NSCLC): 44 µM
TGI (NCI-H522 lung): 62.4 µM
TGI (COLO 205 colon): 19.3 µM
TGI (NCI-H460 lung): 41.6 µM
TGI (M14 melanoma): 23.2 µM
TGI (UO-31 renal): 17.6 µM
TGI (UACC-257 melanoma): 31.7 µM
TGI (PC-3 prostate): 29.5 µM
TGI (LOX IMVI melanoma): 37 µM
TGI (KM12 colon): 72.9 µM
TGI (OVCAR-5 ovarian): 30.2 µM
TGI (U251 CNS): 39.1 µM
TGI (K-562 leukemia): > 100 µM
TGI (SK-MEL-28 melanoma): 25.9 µM
TGI (NCI-H23 lung): 40.8 µM
TGI (EKVX NSCLC): 23.8 µM
TGI (SNB-19 CNS): 33.7 µM
TGI (SN12C renal): 35 µM
TGI (CCRF-CEM leukemia): 34.9 µM
TGI (RPMI-8226 leukemia): > 100 µM
TGI (OVCAR-4 ovarian): 48.8 µM
TGI (SF-295 CNS): 39.2 µM
TGI (HCT-15 colon): 51.4 µM
TGI (SW-620 colon): 32.2 µM
TGI (A549 NSCLC): 28.2 µM
TGI (HCT-116 colon): 38.5 µM
TGI (SK-MEL-5 melanoma): 36.2 µM
TGI (NCI/ADR-RES ovarian): 46 µM
TGI (SK-MEL-2 melanoma): 37.9 µM
TGI (MDA-MB-231 breast): 31 µM
TGI (HOP-62 NSCLC): 35.4 µM
TGI (OVCAR-3 ovarian): 37.9 µM
TGI (SF-539 CNS): 36.3 µM

CCc1nc(N)c2nc(-c3ccc(C#N)cc3)oc2n1
TGI (MDA-MB-435): > 100 µM
TGI (A498 renal): > 100 µM
TGI (HT29 colon): > 100 µM
TGI (MOLT-4 leukemia): > 100 µM
TGI (SF-268 CNS): > 100 µM
TGI (MCF7 breast): > 100 µM
TGI (TK-10 renal): > 100 µM
TGI (NCI-H226 lung): > 100 µM
TGI (HCC-2998 colon): > 100 µM
TGI (UACC-62 melanoma): > 100 µM
TGI (HS 578T breast): > 100 µM
TGI (786-0 renal): > 100 µM
TGI (SR leukemia): > 100 µM
TGI (SNB-75 CNS): > 100 µM
TGI (MDA-N): > 100 µM
TGI (RXF 393 renal): > 100 µM
TGI (CAKI-1 renal): > 100 µM
TGI (T-47D breast): > 100 µM
TGI (ACHN renal): > 100 µM
TGI (OVCAR-8 ovarian): > 100 µM
TGI (BT-549 breast): > 100 µM
TGI (DU-145 prostate): > 100 µM
TGI (HOP-92 NSCLC): > 100 µM
TGI (NCI-H522 lung): > 100 µM
TGI (COLO 205 colon): > 100 µM
TGI (NCI-H460 lung): > 100 µM
TGI (M14 melanoma): > 100 µM
TGI (UO-31 renal): > 100 µM
TGI (UACC-257 melanoma): > 100 µM
TGI (PC-3 prostate): > 100 µM
TGI (LOX IMVI melanoma): > 100 µM
TGI (KM12 colon): > 100 µM
TGI (OVCAR-5 ovarian): > 100 µM
TGI (K-562 leukemia): > 100 µM
TGI (IGROV1 ovarian): > 100 µM
TGI (SK-MEL-28 melanoma): > 100 µM
TGI (NCI-H23 lung): > 100 µM
TGI (EKVX NSCLC): > 100 µM
TGI (SNB-19 CNS): > 100 µM
TGI (SN12C renal): > 100 µM
TGI (CCRF-CEM leukemia): > 100 µM
TGI (RPMI-8226 leukemia): > 100 µM
TGI (SF-295 CNS): > 100 µM
TGI (HCT-15 colon): > 100 µM
TGI (SW-620 colon): > 100 µM
TGI (A549 NSCLC): > 100 µM
TGI (HCT-116 colon): > 100 µM
TGI (SK-MEL-5 melanoma): > 100 µM
TGI (NCI/ADR-RES ovarian): > 100 µM
TGI (SK-MEL-2 melanoma): > 100 µM
TGI (MDA-MB-231 breast): > 100 µM
TGI (HOP-62 NSCLC): > 100 µM
TGI (OVCAR-3 ovarian): > 100 µM
TGI (SF-539 CNS): > 100 µM

Cc1ncc(CSc2ccccc2N)c(CO)c1O
TGI (MDA-MB-435): > 100 µM
TGI (A498 renal): > 100 µM
TGI (HT29 colon): > 100 µM
TGI (MOLT-4 leukemia): > 100 µM
TGI (SF-268 CNS): > 100 µM
TGI (MCF7 breast): > 100 µM
TGI (TK-10 renal): > 100 µM
TGI (NCI-H226 lung): > 100 µM
TGI (SK-OV-3 ovarian): > 100 µM
TGI (UACC-62 melanoma): > 100 µM
TGI (HS 578T breast): > 100 µM
TGI (786-0 renal): > 100 µM
TGI (SR leukemia): > 100 µM
TGI (SNB-75 CNS): > 100 µM
TGI (MDA-N): > 100 µM
TGI (RXF 393 renal): > 100 µM
TGI (CAKI-1 renal): > 100 µM
TGI (MALME-3M melanoma): > 100 µM
TGI (T-47D breast): > 100 µM
TGI (ACHN renal): > 100 µM
TGI (OVCAR-8 ovarian): > 100 µM
TGI (BT-549 breast): > 100 µM
TGI (DU-145 prostate): > 100 µM
TGI (HOP-92 NSCLC): > 100 µM
TGI (NCI-H522 lung): > 100 µM
TGI (COLO 205 colon): > 100 µM
TGI (M14 melanoma): > 100 µM
TGI (UACC-257 melanoma): > 100 µM
TGI (PC-3 prostate): > 100 µM
TGI (LOX IMVI melanoma): > 100 µM
TGI (KM12 colon): > 100 µM
TGI (OVCAR-5 ovarian): > 100 µM
TGI (U251 CNS): > 100 µM
TGI (K-562 leukemia): > 100 µM
TGI (IGROV1 ovarian): > 100 µM
TGI (SK-MEL-28 melanoma): > 100 µM
TGI (NCI-H23 lung): > 100 µM
TGI (EKVX NSCLC): > 100 µM
TGI (SNB-19 CNS): > 100 µM
TGI (SN12C renal): > 100 µM
TGI (RPMI-8226 leukemia): > 100 µM
TGI (OVCAR-4 ovarian): > 100 µM
TGI (SF-295 CNS): > 100 µM
TGI (HCT-15 colon): > 100 µM
TGI (SW-620 colon): > 100 µM
TGI (A549 NSCLC): > 100 µM
TGI (HCT-116 colon): > 100 µM
TGI (SK-MEL-5 melanoma): > 100 µM
TGI (NCI/ADR-RES ovarian): > 100 µM
TGI (SK-MEL-2 melanoma): > 100 µM
TGI (MDA-MB-231 breast): > 100 µM
TGI (HOP-62 NSCLC): > 100 µM
TGI (OVCAR-3 ovarian): > 100 µM
TGI (SF-539 CNS): > 100 µM
